Marks after values point to notes of the source that are not given here.

Experiment [1] deals with M. avium. The experiment is described as follows: Attachment and/or invasion of M. avium into mBMDM, CFU immediately after infection. The following applies: vs cells treated with M-ODN or medium alone. The class given is cell-based, Mycobacterium avium. As to the method: (§1) Alternatively, 5×10^4 mBMDM or hMDM was treated with ISS for 3 days before infection. Macrophages treated with M-ODN or with media alone served as controls. After 3 days, the cells were infected for 2 hrs with M. avium at a macrophage:bacteria ratio of 2:1 for mBMDM or of 1:10 for hMDM, and subsequently cultured in fresh media without antibiotics. To examine attachment and/or invasion of M. avium, the macrophages were lysed immediately after washing, and the number of bacteria were enumerated by the CFU assay. Intracellular growth of M. avium was determined on days 1, 3, and 7 after infection. To account for all the mycobacteria in each group, corresponding lysates were combined and then the number of CFU was determined. To examine the efficacy of anti-mycobacterial treatments, CFU recovered from cells treated with medium alone were considered as 100% growth.
ISS activate macrophages and induce the expression of surface adhesion molecules such as ICAM-1 (Martin-Orozco, et al. (1999) Int. Immun. 11:1111-1118). These molecules may affect the attachment of M. avium or its invasion into mouse bone marrow-derived macrophages (mBMDM). […]

Experiment [2] has as its system M. avium. Kind of experiment: Intracellular growth of M. avium in mouse bone marrow-derived macrophages (mBMDM) in vitro, CFU assay. The class given is cell-based, Mycobacterium avium. Particulars: for % of CFU: 10 μg/ml 72 h prior to infection, medium alone = 100%. The method, then: A previously studied M. avium strain 13 (Hayashi, et al. (1999) Infect. Immun. 67:3558-3565; Meylan, et al. (1990) Infect. Immun. 58:2564-2568), isolated from an AIDS patient at UCSD, San Diego, Calif., was used in all experiments. The organism was cultured on Middlebrook 7H11 agar (Difco Laboratories, Detroit, Mich.) with OADC enrichment at 37° C. in the presence of 5% CO2 for two weeks. Transparent colonies were selectively picked and further cultured on Middlebrook 7H11 plates for two more weeks. The resulting colonies, which were predominantly transparent (>90%), were then collected and washed two times with phosphate-buffered saline (PBS). The bacteria were finally resuspended in Middlebrook 7H9 broth (Difco Laboratories) and the OD600 of the suspension was adjusted to 0.15-0.2. The suspension was aliquoted and stored at −70° C. until use. The number of organisms/ml of this suspension was determined by the colony forming unit (CFU) assay.
The number of CFU in a given sample was determined by colony counting as described previously (Ogata, et al. (1992) Infect. Immun. 60:4720-4725). Serial 10-fold dilutions of total cell lysates or tissue homogenates were performed in PBS. 10 μl of each dilution were plated on Middlebrook 7H11 plates supplemented with OADC enrichment. The plates were incubated up to 14 days at 37° C. The number of colonies was counted every alternate day from day 10 onwards until no new colonies appeared. This yielded the number of CFU/10 μl. The number of CFU in each well was then calculated.
Preparation of Murine Macrophages. Mouse bone marrow-derived macrophages (mBMDM) were prepared from mouse bone marrow using L-cell conditioned media, as described in Martin-Orozco, et al. (1999) […] 11:1111-1118.
as §1
To determine whether treatment with ISS after infection alters M. avium growth, adherent cells were first infected with M. avium for 2 hrs and then these cells were cultured with fresh media containing ISS. Infected cells treated with M-ODN or medium alone served as controls. At day 7, intracellular growth of M. avium was assessed by CFU assay.

Experiment [3] has as its system spleen and liver of M. avium-infected mice. Kind of experiment: Histologic examination of spleen and liver of M. avium-infected mice. The class given is in vivo. The method, then:
Sections of the spleen and liver collected from the experimental and control M. avium-infected mice at 2, 4, and 6 weeks post-infection, were fixed overnight in 10% buffered formalin at room temperature, and embedded in paraffin. The paraffin-embedded tissue was further sectioned (5 μm thickness), stained with hematoxylin-eosin and observed under an Olympus microscope. At least three sections from each organ of each of the experimental and control mice were evaluated and representative fields were viewed at 100×.

The next experiment concerns IL-12 (p70). Kind of experiment: Serum IL-12 (p70) by ELISA in mice. The class given is in vivo. As to the method:
Serum obtained from M. avium-infected mice that received ISS or PBS was assayed for IFN-γ and IL-12 by ELISA using mouse IFN-γ and IL-12 (p70) ELISA kits (Endogen, Inc. Woburn, […]), respectively, and following the manufacturer's instructions.

Experiment [4] deals with indoleamine 2,3-dioxygenase (IDO). The experiment is described as follows: IDO gene transcription in mBMDM in vitro, semi-quantitative RT-PCR. Particulars: mBMDM treated 3 days prior to M. avium infection; 4, 8, 24 hrs after infection. The class given is cell-based, mouse. The method, then:
1-4×10^6 mBMDM were treated with ISS or M-ODN. After 3 days, the cells were infected with M. avium for 2 hrs. At 2, 24, and 48 hrs after infection, the M. avium-infected macrophages were lysed and total RNA was isolated using the Trizol Reagent (Gibco BRL). The induction of IDO gene transcription was measured by semi-quantitative […]. First-strand cDNA preparation and PCR amplification was carried out using the SuperScript Pre-amplification System (Gibco BRL) and AdvanTaq Plus DNA polymerase (Clontech, San Francisco, Calif.), respectively. PCR products were visualized by electrophoresis on 2% agarose gels. The primer sequences used were as follows:
For in vitro studies mBMDM were treated with ISS for 3 days prior to M. avium infection. Then, cells were lysed at 4, 8, and 24 hrs after infection, total RNA was extracted, and semi-quantitative RT-PCR was performed.

Experiment [5] has the same test system. The experiment is described as follows: IDO gene induction in vivo in mice, semi-quantitative RT-PCR. The following applies: 50 μg i.v.; after 16 hrs.
Setting [6] is: other experiments, data not shown.

As for “5′-TGACTGTGAACGTTCGAGATGA-3′ (SEQ ID NO:1) [ISS]”, the “CFU recovered immediately from cells treated before infection (attachment/invasion)” value with M. avium [1] was “not significantly different”. In the experiment with M. avium [2] (NADPH oxidase−/−, iNOS−/−, TNF-α−/−, IL-12p40−/−, IFN-α/βR−/−, IFN-γR−/− mBMDM, ISS 3 days before infection), the “inhibition of intracellular growth of M. avium in mBMDM from knockout mice” value was 60-85%. Besides, the “% of CFU” value in the experiment on M. avium [2] (mBMDM from IFN-αR−/− 129S6/SvEv, day 7) is 10.9 ± 01.7^b %; in the experiment with M. avium [2] (mBMDM from IFN-γR−/− 129S6/SvEv, day 7), 7.6 ± 01.3^b %; in the experiment with M. avium [2] (mBMDM from IL-12 p40−/− C57B1/6, day 7) it was 26.4 ± 10.1^b %; with M. avium [2] (mBMDM from INOS−/− C57B1/6, day 7), 37.3 ± 4.6^b %; with M. avium [2] (mBMDM from NADPH oxidase−/− (gp91 phox−/−) C57B1/6, day 7) it was 11.4 ± 1.5^b %; in the experiment with M. avium [2] (mBMDM from TNF-α−/− C57B1/6, day 7), 24.0 ± 6.0^b %. Also, the “% of CFU” value in the experiment with M. avium [2] (mBMDM from Wild type 129S6/SvEV, day 7) is reported as 17.0 ± 4.0^b %; in the experiment on M. avium [2] (mBMDM from Wild type C57B1/6, day 7), 18.2 ± 7.3^b %. In the experiment with M. avium [2] (mBMDM infected first, then treated, ISS 10 μg/ml, CLA 0.1 μg/ml, 7 days after infection, compared to medium alone), the “reduction of bacterial growth in mBMDM” value came out at 68%. The “inhibition of intracellular growth of M. avium in mBMDM” value with M. avium [2] (treated 72 hrs before infection, day 7) was determined as 80%. For the same substance, the “decrease of intracellular growth of M. avium in mBMDM” value in the experiment on M. avium [2] (treated for 7 days starting two hours after infection, vs M-ODN or medium alone) worked out at 68%. In addition, in experiment [3] (vs PBS-treated infected mice), the “histopathology of the livers” value is “no significant histopathological differences”. Further, the “granulomas in the spleen” value in experiment [3] (week 4, vs infected mice treated with PBS) was “notably smaller in size and surrounded by mononuclear cells”. In addition, the “granulomas in the spleens” value in experiment [3] (week 6, vs PBS-treated infected mice) is “not significantly different”. For the same substance, the “serum IL-12 levels” value with IL-12 (p70) (M. avium-infected mice (10^6 organisms/mouse), 2, 4, 6 weeks, below ELISA detection) was less than 5 pg/mL. For the same substance, in the experiment on IL-12 (p70) (setting [6]), the “time for serum IL-12 to attain basal levels post injection” value was no more than 3 weeks. In addition, in the experiment with IL-12 (p70) (setting [6]), the “time of peak serum level of IL-12 after administration” value was found to be 1 days. Moreover, the “optimal induction of IDO gene transcription” value in experiment [4] is “require both treatment with ISS and M. avium infection”. In addition, the “IDO gene induction in vivo in the liver” value in experiment [5] is on record as “not in the liver”. Moreover, the “IDO gene induction in vivo in the lungs and spleen” value in experiment [5] is given as “observed”.

Source of the values: patent publication US6552006B2, “Immunomodulatory polynucleotides in treatment of an infection by an intracellular pathogen” (The Regents of the University of California, priority 2000, dated 2003).
